Reference: ChEMBL document CHEMBL1857833, “Screening and optimization of specific chemical series against human African Trypanosomiasis (HAT)”
In brackets after ≈: the same amount, converted by molar mass. Several values for one entry are separate records, joined by “and”; a condition that tells them apart may be missing. Equal values may be shown once.

What was measured:
[1] = system: Trypanosoma brucei; assay: DNDI: Inhibition of Human African Trypanosomiasis, SBRI 427, in vitro; type: functional, organism-based
[2] = DNDI: Cytotoxicity against L929 mouse fibroblasts, CYTO-SP, 24 hour; type: toxicity, cell-based; details: mouse, L929 mouse fibroblasts
[3] = Trypanosoma brucei, SBRI 427, read-out: IC50

SMILES | IC50 [1, 3] [µg/mL] | IC50 at 24 h [2] [µg/mL] | IC50 [1]
N#Cc1cccnc1Oc1ccccc1 | > 5 | > 50 | –
Fc1ccccc1Oc1ncccc1CNC1CCCCC1 | > 5 | > 50 | –
N#Cc1cccnc1Oc1ccccc1Br | > 5 | > 50 | –
Cc1ccc(-c2nc(CNC[C@@H]3CC[C@H]4C[C@@H]3C4(C)C)co2)cc1 | – | 28.4 (≈ 87.5 µM) | 0.93 µg/mL and 2.49 µg/mL
CC1CCC(N/C(=N\O)c2cccnc2Oc2ccc(F)cc2Cl)CC1 (stereo unspecified) | – | 28 (≈ 74.1 µM) | –
CCc1ccccc1Oc1ncccc1/C(N)=N\O | > 5 | > 5 | –
O/N=C(\NC1CCCC1)c1ccc(Oc2cc(Cl)ccc2Cl)nc1 | 1.08 (≈ 2.95 µM) | 28.8 (≈ 78.6 µM) | –
CSc1ccccc1Oc1ncccc1C#N | > 5 | > 50 | –
COc1cc(C)ccc1Oc1nc(C)ccc1/C(=N/O)NCc1cc(F)cc(F)c1 | 1.02 (≈ 2.47 µM) | > 50 | –
N/C(=N/O)c1cccnc1Oc1ccc2ccccc2c1 | > 5 | > 50 | –
Cc1ccccc1CN/C(=N\O)c1cccnc1Oc1ccc(C(C)C)cc1 | 1.06 (≈ 2.82 µM) | 44.9 (≈ 120 µM) | –
CCO/N=C/c1ccccc1-c1ccccc1 | > 5 | > 50 | –
COc1ccc(/C=N/Oc2ccccc2)cc1 | > 5 | > 50 | –
N/C(=N/O)c1cccnc1Oc1cccc2ccccc12 | > 5 | > 50 | –
Cc1ccc(Oc2ncccc2/C(=N/O)NC2CCC(C)CC2)c2c1CCC2 (stereo unspecified) | 0.81 (≈ 2.13 µM) | 32.5 (≈ 85.5 µM) | –
C(=N\OCc1ccccc1)/c1ccccc1-c1ccccc1 | > 5 | > 50 | –
COc1ccccc1Oc1ncccc1/C(=N/O)NC1CCCC1 | – | > 50 | –
O/N=C(\NCC1CCCCC1)c1cccnc1Oc1ccc(Cl)cc1 | 0.92 (≈ 2.56 µM) | > 50 | –
Cc1ccc(Oc2ncccc2/C(=N/O)NCc2cccs2)c2c1CCC2 | 1.09 (≈ 2.87 µM) | > 50 | –
CO/N=C/c1ccc(OC)cc1 | > 5 | > 50 | –
O/N=C(\NC1CCC1)c1cccnc1OCC1CCCCC1 | 0.64 (≈ 2.11 µM) | > 50 | –
CC(C)(C)CN/C(=N\O)c1cccnc1Oc1ccc(Cl)cc1 | 0.58 (≈ 1.74 µM) | > 50 | –
COc1ccc(Oc2ncccc2/C(=N/O)NCC(C)(C)C)cc1 | 0.18 (≈ 0.546 µM) | > 50 | –
N#Cc1cccnc1Oc1ccc2ccccc2c1 | > 5 | > 50 | –

SMILES | IC50 [1, 3] [µg/mL] | IC50 at 24 h [2] [µg/mL] | IC50 [1]
COc1cc(C)ccc1Oc1nc(C)ccc1/C(=N/O)NCc1cc(C)cc(C)c1 | 1.1 (≈ 2.71 µM) | > 50 | –
Cc1ccc(Oc2ncccc2/C(=N/O)NCC2CC2)c2c1CCC2 | 0.21 (≈ 0.622 µM) | > 50 | –
C=CCO/N=C/c1ccc(OC)cc1 | > 5 | > 50 | –
COc1ccccc1Oc1ncccc1C(=O)NC1CCCCC1 | > 5 | > 50 | –
CCC(CC)N/C(=N\O)c1cccnc1Oc1ccc(OC)cc1 | 0.78 (≈ 2.37 µM) | > 50 | –
Clc1ccc(-c2nc(CNCCCN3CCCC3)co2)c(Cl)c1 | – | 33.6 (≈ 94.8 µM) | 0.62 µg/mL and 1.33 µg/mL
Cc1ccccc1CN/C(=N\O)c1cccnc1Oc1c(F)cccc1F | 1.02 (≈ 2.76 µM) | > 50 | –
N/C(=N/O)c1cccnc1Oc1ccccc1 | > 5 | > 50 | –
COc1ccc(Oc2ncccc2/C(=N/O)NC2CCCC2)cc1 | 0.15 (≈ 0.458 µM) | > 50 | –
O/N=C(\NC1CCC1)c1cccnc1Oc1ccc2c(c1)CCCC2 | 0.19 (≈ 0.563 µM) | > 50 | –
O/N=C(/c1cccnc1Oc1ccc2ccccc2c1)N1CCC2CCCCC2C1 (stereo unspecified) | 0.13 (≈ 0.324 µM) | > 50 | –
CCc1ccccc1Oc1ncccc1C#N | > 5 | > 50 | –
N#Cc1cccnc1Oc1cccc2ccccc12 | > 5 | > 50 | –
CCc1ccc(Oc2ncccc2/C(=N/O)NCc2ccccc2OC)cc1 | 1.08 (≈ 2.86 µM) | > 50 | –
Cc1ccc(Oc2ncccc2/C(=N/O)NCC(C)C)c2c1CCC2 | 0.55 (≈ 1.62 µM) | > 50 | –
CC1CCC(N/C(=N\O)c2cccnc2Oc2ccccc2OC(C)C)CC1 (stereo unspecified) | 0.55 (≈ 1.43 µM) | > 50 | –
COc1ccc(C(=O)Cc2ccccc2)cc1 | > 5 | > 50 | –
Cc1ccc2cccc(Oc3ccc(/C(=N/O)NC4CCCCC4)cn3)c2n1 | 1.08 (≈ 2.87 µM) | > 50 | –
O/N=C(\NC1CCCCC1)c1ccc(Oc2ccc(Cl)cc2)nc1 | 1.2 (≈ 3.47 µM) | 30.8 (≈ 89.1 µM) | –
CO/N=C/c1ccccc1-c1ccccc1 | > 5 | > 50 | –
CC1CCC(N/C(=N\O)c2cccnc2Oc2ccc(-n3cncn3)cc2)CC1 (stereo unspecified) | – | > 50 | –
CC(C)(C)CN/C(=N\O)c1ccc(Oc2cc(Cl)ccc2Cl)nc1 | 0.9 (≈ 2.44 µM) | > 50 | –
O=C(NC1CCCCC1)c1cccnc1Oc1ccccc1 | > 5 | > 50 | –
COc1cccc(CN/C(=N\O)c2cccnc2Oc2ccc(Cl)cc2)c1 | 1.1 (≈ 2.87 µM) | > 50 | –

SMILES | IC50 [1, 3] [µg/mL] | IC50 at 24 h [2] [µg/mL] | IC50 [1]
Cc1cc(N)nn1Cc1coc(-c2ccc(OC(F)(F)F)cc2)n1 | 1.18 (≈ 3.49 µM) | > 50 | –
CCC(CC)N/C(=N\O)c1cccnc1Oc1ccc(C)c2c1CCC2 | 0.37 (≈ 1.05 µM) | > 50 | –
Cc1cc(C)cc(CN/C(=N\O)c2cccnc2Oc2c(F)cccc2F)c1 | 1.08 (≈ 2.82 µM) | > 50 | –
CCCCNCc1coc(-c2ccc(C(C)(C)C)cc2)n1 | – | 28.1 (≈ 98.1 µM) | 1.84 µg/mL and 0.87 µg/mL
CN1CCCC1CCNCc1coc(-c2ccc(Br)cc2)n1 (stereo unspecified) | – | 25.1 (≈ 68.9 µM) | 1.22 µg/mL and 0.45 µg/mL
Cc1ccc(Oc2nc(C)ccc2/C(=N/O)NC2CCCCC2)c(C)c1 | – | 34 (≈ 96.2 µM) | 0.78 µg/mL and 0.28 µg/mL
N#Cc1cccnc1Oc1ccccc1F | > 5 | > 50 | –
CCO/N=C/c1ccc(OC)cc1 | > 5 | > 50 | –
O=C(NC1CCCCC1)c1cccnc1Cl | > 5 | > 50 | –
COc1ccccc1Oc1ncccc1C#N | > 5 | > 50 | –
CSc1ccccc1Oc1ncccc1/C(N)=N\O | > 5 | > 5 | –
O/N=C(\NCc1c(F)cccc1F)c1cccnc1Oc1c(F)cccc1F | 1.15 (≈ 2.94 µM) | > 50 | –
COc1ccc(/C=N/OCc2ccccc2)cc1 | > 5 | > 50 | –
CC(C)N1CCN(/C(=N\O)c2cccnc2Oc2cccc(C(F)(F)F)c2)CC1 | 0.73 (≈ 1.79 µM) | > 50 | –
COc1ccc(Oc2ncccc2/C(=N/O)NCC2CC2)cc1 | 0.34 (≈ 1.09 µM) | > 50 | –
COCC(C)N/C(=N\O)c1cccnc1Oc1ccc(C(C)C)cc1 (stereo unspecified) | 0.92 (≈ 2.68 µM) | > 50 | –
CC(C)CO/N=C/c1ccccc1-c1ccccc1 | > 5 | > 50 | –
Cc1ccc(Oc2ccc(/C(=N/O)NCC3CC3)cn2)c(C)c1 | – | > 50 | –
O/N=C(\NC1CCCC1)c1cccnc1Oc1c(F)cccc1F | 0.23 (≈ 0.69 µM) | > 50 | –
O/N=C(\NCc1ccccc1)c1cccnc1Oc1cc(Cl)ccc1Cl | 0.77 (≈ 1.98 µM) | > 50 | –
Cc1ccc(/C(=N/O)NC2CCC(C)CC2)c(OCc2ccccn2)n1 (stereo unspecified) | – | > 50 | –
O=C(NC1CCCCC1)c1cccnc1Oc1ccccc1Cl | > 5 | > 50 | –
CC(C)COc1ncccc1/C(=N/O)NCC(C)(C)C | 1.12 (≈ 4.01 µM) | > 50 | –
C=CCO/N=C/c1ccccc1-c1ccccc1 | > 5 | > 50 | –

SMILES | IC50 [1, 3] [µg/mL] | IC50 at 24 h [2] [µg/mL] | IC50 [1]
COCCN/C(=N\O)c1cccnc1Oc1ccc(C(C)C)cc1 | 1.04 (≈ 3.16 µM) | > 50 | –
N/C(=N/O)c1cccnc1Oc1ccccc1Br | > 5 | > 50 | –
CC1CC(NCc2coc(-c3ccc(C(F)(F)F)cc3)n2)CC(C)(C)C1 (stereo unspecified) | 1.07 (≈ 2.92 µM) | > 50 | 0.54 µg/mL (≈ 1.47 µM)
CC1CCCCN1CCCNCc1coc(-c2ccc(Cl)cc2Cl)n1 (stereo unspecified) | – | 42.2 (≈ 110 µM) | 2.68 µg/mL and 1.13 µg/mL
O/N=C(\NCC1CCCCC1)c1cccnc1Oc1c(F)cccc1F | 0.91 (≈ 2.52 µM) | > 50 | –
CCC(CC)N/C(=N\O)c1ccc(C)nc1Oc1ccc(SC)cc1 | 1.08 (≈ 3 µM) | > 50 | –
CCOc1ccccc1CN/C(=N\O)c1cccnc1Oc1ccc(C)c2c1CCC2 | 0.73 (≈ 1.75 µM) | > 50 | –
Cc1ccccc1CN/C(=N\O)c1cccnc1Oc1cc(Cl)ccc1Cl | 1.06 (≈ 2.63 µM) | 33.6 (≈ 83.6 µM) | –
CCc1ccc(Oc2ncccc2/C(=N/O)NCCOC)cc1 | 1.12 (≈ 3.55 µM) | > 50 | –
COc1cc(C)ccc1Oc1ncccc1/C(N)=N/O | > 5 | > 5 | –
CC(C)Oc1ccccc1Oc1ncccc1/C(=N/O)NC1CCCCC1 | 0.46 (≈ 1.25 µM) | > 50 | –
COc1ccc(/C(Cc2ccccc2)=N/O)cc1 | > 5 | > 50 | –
CC(C)(C)CN/C(=N\O)c1cccnc1Oc1c(F)cccc1F | 0.39 (≈ 1.16 µM) | 45.4 (≈ 135 µM) | –
O/N=C(\NC1CCCCC1)c1cccnc1Oc1ccc2ccccc2c1 | 0.08 (≈ 0.221 µM) | > 50 | –
CC1CC(N/C(=N\O)c2cccnc2Oc2cc(Cl)ccc2Cl)CC(C)(C)C1 (stereo unspecified) | 0.03 (≈ 0.071 µM) | 30.9 (≈ 73.2 µM) | –
COc1ccc(Oc2ncccc2/C(=N/O)NC2CCC2)cc1 | 0.28 (≈ 0.894 µM) | > 50 | –
CC1CC(N/C(=N\O)c2cccnc2Oc2ccccc2OC(C)C)CC(C)(C)C1 (stereo unspecified) | 1.06 (≈ 2.58 µM) | > 50 | –
CC1CCC(N/C(=N\O)c2cccnc2Oc2c(F)cccc2F)CC1 (stereo unspecified) | 0.99 (≈ 2.74 µM) | > 50 | –
CC1CC(N/C(=N\O)c2cccnc2Oc2ccc(F)c(Cl)c2)CC(C)(C)C1 (stereo unspecified) | 0.07 (≈ 0.172 µM) | 28.2 (≈ 69.4 µM) | –
COc1cc(C)ccc1Oc1nc(C)ccc1/C(=N/O)NCC(C)(C)C | 0.09 (≈ 0.252 µM) | < 50 | –
CCC(CC)N/C(=N\O)c1cccnc1Oc1c(F)cccc1F | 0.31 (≈ 0.924 µM) | > 50 | –
CC1CC(N/C(=N\O)c2cccnc2Oc2c(F)cccc2F)CC(C)(C)C1 (stereo unspecified) | 1.12 (≈ 2.88 µM) | 31.5 (≈ 80.9 µM) | –
COc1ccc(/C=N/OCC(C)C)cc1 | > 5 | > 50 | –
